Experimental data reported in EP0907731B1, “METABOTROPIC GABA(B) RECEPTORS, RECEPTOR-SPECIFIC LIGANDS AND THEIR USES” (Novartis AG, priority 1996, dated 1997).
“Also recorded” adds a separate entry of the source. Read-outs that look alike come from different tables or passages of the source.

Columns and labels:
GABAB receptors = details: inhibition of [125I]CGP 64213 binding, native receptors; read-out: Rat cerebral cortex IC50
Protocol: The animals are decapitated, the brains removed, the cerebral cortices dissected and homogenised in 10 volumes of ice-cold 0.32 M sucrose, containing MgCl2 (1 mM) and K2HPO4 (1 mM), with a glass/Teflon homogeniser. The membranes are centrifuged at 1000 x g for 15 min, the pellet resuspended and the centrifugation repeated. The supernatants are pooled and centrifuged at 20000 x g for 15 min. The pellet is osmotically shocked by resuspension in 10 volumes H2O and kept on ice for 30 min. […] The membranes are thawed at room temperature, washed three times with Krebs-Henseleit buffer by centrifugation at 20000 x g for 15 min, left overnight at 4°C and washed again three times. The final pellet is resuspended with a glass/Teflon homogenise in 20 ml of the same buffer. 2 ml aliquots are frozen and stored in liquid nitrogen. Just before use membranes are thawed quickly in a water bath at 37°C and again washed by centrifugation at 20000 x g for 15 min with the same buffer three times.
The incubation is terminated by filtration through GF/B Whatman glass fibre filters.

[1] = target: recombinant GABABR1a receptors; details: read-out: COS 1 cells IC50, inhibition of [125I]CGP 64213 binding
Protocol: In order to isolate membranes containing the cloned GABAB receptor, culture dishes containing GABAB receptor-expressing COS cells are washed twice with Krebs-Henseleit-Tris buffer. Afterwards the cells are scraped off the dishes, homogenised in a glass-glass homogeniser and centrifuged for 30 min at 4°C at 40'000 g. The homogenisation and centrifugation step is repeated once. The pellet is resuspended in buffer and stored in liquid nitrogen until further analysis.

native GABAB receptors = assay: Photoaffinity labelling of membranes with [125I]CGP 71872 in the presence of competitor substances; type: binding, rat
Protocol: The incubation is terminated by centrifugation at 20 000 x g for 10 min at 4°C. This step removed free unbound photoaffinity label. […] The suspension is centrifuged at 20 000 x g for 10 min and resuspended at a concentration of 8mg/ml protein in buffer. […] The labelled membranes could be stored at -80°C.
Furthermore, native GABAB receptors are photoaffinity-labelled in the presence of various competitor substances indicated in Figure 4b.

GABABR1a = target: T1, GABABR1a (Rattus norvegicus, UniProt Q9Z0U4); assay: Forskolin-stimulated cAMP accumulation in HEK293 cells stably expressing GABABR1a; type: cell-based; details: 10 µM antagonist, 300 µM L-baclofen
T1 construct: either the full-length cDNA clones disclosed herein or fragments thereof can be used as probes; expressed in transfected cells
From the text: GABAB receptors are described to inhibit adenylate cyclase activity, stimulate phospholipase A2, activate K^+-channels, inactivate voltage-dependent Ca^2+-channels and to modulate inositol phospholipid hydrolysis. As GABABR1a and -b have identical sequence in all domains predicted to be intracellular they are expected to be able to couple to the same effector systems. […] We chose concentrations of forskolin and L-baclofen that should produce a maximal effect.

[2] = test system: non-transfected HEK293 cells; assay: Forskolin-stimulated cAMP formation in non-transfected HEK293 cells (control); type: cell-based; details: untransfected HEK293 cells
Protocol: • Figure 1 a depicts the expression of the recombinant GABABR1a receptor in COS1 cells. […]. Autoradiography of a 6% SDS gel with 25µg protein loaded per lane is shown. […]. The apparent molecular weight of native and recombinant GABAB receptors are estimated from gel mobilities relative to those of SDS-PAGE standards (BioRad). […]. Cell membranes of the tissues indicated are photoaffinity-labelled with [[…] and subjected to SDS-PAGE and autoradiography. a, b, Selectivity of the photoaffinity ligand [[…]. a, Differential distribution of GABAB receptor variants of 130K and 100K in tissues of the nervous system. […]. Incubation of membrane extracts with the photoaffinity ligand is carried out in the presence of competitor substances at the concentrations indicated, c, GABAB receptors are N-glycosylated. Photoaffinity-labelled rat cortex cell membranes are incubated with 0.4 units N-glycosidase F or 0.6 milliunits O-glycosidase (Boehringer Mannheim). d, Photolabelling of GABAB receptors from different species. […]
GABAB receptors are described to inhibit adenylate cyclase activity, stimulate phospholipase A2, activate K^+-channels, inactivate voltage-dependent Ca^2+-channels and to modulate inositol phospholipid hydrolysis. […] The ability of GABABR1a stably expressed in HEK293 cells to reduce forskolin-stimulated CAMP accumulation is analysed (Fig. 5). […]

[3] = test system: rat cortical slice preparations; details: cited from earlier work

T1 sequence (Q9Z0U4 20-960): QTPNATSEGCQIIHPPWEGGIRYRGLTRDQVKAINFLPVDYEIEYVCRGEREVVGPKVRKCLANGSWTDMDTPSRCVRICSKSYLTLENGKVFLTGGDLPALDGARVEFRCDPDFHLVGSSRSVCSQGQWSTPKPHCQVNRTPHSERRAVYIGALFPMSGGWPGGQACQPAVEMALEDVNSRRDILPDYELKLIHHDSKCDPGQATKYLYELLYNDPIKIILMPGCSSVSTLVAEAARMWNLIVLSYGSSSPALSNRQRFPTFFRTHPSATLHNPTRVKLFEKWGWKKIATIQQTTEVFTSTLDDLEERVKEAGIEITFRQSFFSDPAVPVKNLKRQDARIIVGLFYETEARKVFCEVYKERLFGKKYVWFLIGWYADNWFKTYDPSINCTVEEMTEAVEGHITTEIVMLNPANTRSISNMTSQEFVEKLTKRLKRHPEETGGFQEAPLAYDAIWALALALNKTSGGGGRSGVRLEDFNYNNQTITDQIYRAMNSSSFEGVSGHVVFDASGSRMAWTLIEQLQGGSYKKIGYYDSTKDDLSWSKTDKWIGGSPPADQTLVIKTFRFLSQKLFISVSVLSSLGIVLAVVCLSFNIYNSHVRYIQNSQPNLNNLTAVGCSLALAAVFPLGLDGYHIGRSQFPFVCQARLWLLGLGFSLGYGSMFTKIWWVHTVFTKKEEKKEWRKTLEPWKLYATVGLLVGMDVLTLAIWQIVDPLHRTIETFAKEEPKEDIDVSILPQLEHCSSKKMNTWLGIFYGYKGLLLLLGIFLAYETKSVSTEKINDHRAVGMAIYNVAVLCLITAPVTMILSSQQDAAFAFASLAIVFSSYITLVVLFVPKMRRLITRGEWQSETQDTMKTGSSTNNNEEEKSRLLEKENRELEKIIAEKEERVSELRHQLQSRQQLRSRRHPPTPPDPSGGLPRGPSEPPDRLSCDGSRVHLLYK

NCCCP(=O)(O)C(F)F [CGP 47656]
IC50 (GABAB receptors): 280 nM | IC50 [1]: 12.3 µM

C[C@H](NC[C@H](O)CP(=O)(O)CC1CCCCC1)c1ccc(Cl)c(Cl)c1 [CGP 54626A]
[125I]CGP 71872 labelling in the presence of excess unlabelled antagonist (native GABAB receptors): no radioactivity is bound to the membranes | [125I]CGP 71872 labelling in the presence of excess unlabelled antagonist (native GABAB receptors; listed as CGP54626A): inhibited | effect on the L-baclofen inhibition of forskolin-stimulated cAMP accumulation (GABABR1a): antagonised

NC[C@H](CC(=O)O)c1ccc(Cl)cc1 [L-baclofen]
inhibition of forskolin-stimulated cAMP formation [2]: No L-baclofen response; also recorded: does not inhibit | reduction of forskolin-stimulated cAMP accumulation [3]: about 40%
